IC50 data for 1 molecule are collected here from PubChem BioAssay AID1671204.

The IC50 is the midpoint of a concentration-inhibition curve.

This test deals with Tyrosine-protein kinase ABL1 (Homo sapiens) (UniProt P00519). Description: ABL1 kinase inhibitors, dose response, biochemical, Z'-LYTE FRET, direct format, recombinant human (AID 1671204). Conditions: Z'-LYTE FRET kinase assay.
Sequence of Tyrosine-protein kinase ABL1 (Homo sapiens) (P00519 whole entry, looked up): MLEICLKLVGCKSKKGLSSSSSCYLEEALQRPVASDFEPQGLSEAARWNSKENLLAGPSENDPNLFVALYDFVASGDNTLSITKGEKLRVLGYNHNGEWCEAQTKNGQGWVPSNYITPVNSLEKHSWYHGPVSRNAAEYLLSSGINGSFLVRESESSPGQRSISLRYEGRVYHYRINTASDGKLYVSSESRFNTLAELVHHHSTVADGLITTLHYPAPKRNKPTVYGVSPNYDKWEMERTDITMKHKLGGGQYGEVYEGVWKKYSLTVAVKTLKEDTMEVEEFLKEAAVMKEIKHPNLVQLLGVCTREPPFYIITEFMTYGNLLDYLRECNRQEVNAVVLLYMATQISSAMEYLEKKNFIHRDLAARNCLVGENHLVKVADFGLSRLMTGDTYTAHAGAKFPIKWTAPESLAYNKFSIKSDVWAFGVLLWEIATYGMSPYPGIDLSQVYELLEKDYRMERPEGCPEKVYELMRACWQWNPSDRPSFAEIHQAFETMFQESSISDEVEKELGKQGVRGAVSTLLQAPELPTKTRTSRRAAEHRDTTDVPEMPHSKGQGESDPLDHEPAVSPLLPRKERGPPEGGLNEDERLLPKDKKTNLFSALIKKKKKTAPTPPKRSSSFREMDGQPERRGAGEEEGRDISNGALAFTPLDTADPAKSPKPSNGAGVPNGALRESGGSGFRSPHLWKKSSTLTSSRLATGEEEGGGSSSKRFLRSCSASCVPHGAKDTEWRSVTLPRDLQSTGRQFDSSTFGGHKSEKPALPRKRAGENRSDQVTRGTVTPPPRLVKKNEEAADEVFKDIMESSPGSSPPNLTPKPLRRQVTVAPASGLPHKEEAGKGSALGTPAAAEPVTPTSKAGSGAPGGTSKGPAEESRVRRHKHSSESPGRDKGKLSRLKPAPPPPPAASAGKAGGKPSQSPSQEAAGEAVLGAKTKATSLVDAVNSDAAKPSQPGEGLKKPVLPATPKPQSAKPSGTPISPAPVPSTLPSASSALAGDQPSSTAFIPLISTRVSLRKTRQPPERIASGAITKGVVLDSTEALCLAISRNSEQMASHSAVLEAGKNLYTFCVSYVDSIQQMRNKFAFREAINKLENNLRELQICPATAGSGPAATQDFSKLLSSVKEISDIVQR

As to `COc1cc2ncnc(Nc3cccc(Cl)c3)c2cc1OC`, the IC50 is 434 nM.
